Reference: PubChem BioAssay (NCI)
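In this assay, cells in 96-well plates receive the compound at five concentrations for 48 hours. Endpoints are linearly interpolated between the surrounding concentrations. The concentration for 50% growth inhibition is given as GI50. TGI marks complete inhibition of growth.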

Key:
Assay in all cases: DTP human tumour cell line panel, 48 h
786-0 renal = test system: 786-0 renal
A498 renal = test system: A498 renal
CAKI-1 renal = test system: CAKI-1 renal
HCC-2998 colon = test system: HCC-2998 colon
HCT-15 colon = test system: HCT-15 colon
KM12 colon = test system: KM12 colon
MDA-MB-231 breast = test system: MDA-MB-231 breast
NCI-H23 lung = test system: NCI-H23 lung
PC-3 prostate = test system: PC-3 prostate
OVCAR-8 ovarian = test system: OVCAR-8 ovarian
SF-539 CNS = test system: SF-539 CNS

Structure (SMILES) | TGI (786-0 renal) | TGI (A498 renal) | TGI (CAKI-1 renal) | TGI (HCC-2998 colon) | TGI (HCT-15 colon) | TGI (KM12 colon) | TGI (MDA-MB-231 breast) | TGI (NCI-H23 lung) | TGI (PC-3 prostate) | TGI (OVCAR-8 ovarian) | TGI (SF-539 CNS) | GI50 (A498 renal) | GI50 (CAKI-1 renal) | GI50 (HCC-2998 colon) | GI50 (KM12 colon) | GI50 (MDA-MB-231 breast) | GI50 (NCI-H23 lung) | GI50 (OVCAR-8 ovarian) | GI50 (PC-3 prostate) | GI50 (SF-539 CNS)
O=C1c2ccccc2C(=O)c2c(Nc3ccc4c5c(cccc35)C(=O)c3ccccc3-4)cccc21 | > 100 µM | > 100 µM | > 100 µM | > 100 µM | > 100 µM | > 100 µM | > 100 µM | > 100 µM | > 100 µM |  |  |  |  |  |  |  |  |  |  | 
O=C(CNc1cccc([N+](=O)[O-])c1)Nn1c(-c2ccccc2)nc2ccccc2c1=O |  | 0.274 µM |  | 2.81 µM | 2.23 µM | 4.42 µM | 2.9 µM | 9.32 µM | 1.85 µM | 5.31 µM | 4.7 µM |  |  |  |  |  |  |  |  | 
CC(C)(C)c1cc(C2NCCO2)cc(C(C)(C)C)c1O (stereo not drawn) | > 100 µM | > 100 µM | > 100 µM |  | > 100 µM | > 100 µM | 54.8 µM | > 100 µM | > 100 µM | > 100 µM | > 100 µM |  |  |  |  |  |  |  |  | 
COc1cc(NC(C)=O)ccc1C(=O)N/N=C/c1ccc(Cl)cc1Cl | 64.4 µM | 61 µM | > 100 µM | > 100 µM | > 100 µM | > 100 µM |  | > 100 µM | > 100 µM | > 100 µM | > 100 µM |  |  |  |  |  |  |  |  | 
N#Cc1c(Cl)cccc1Oc1ccc(S(=O)(=O)/N=C(\NN)Nc2ccc(Cl)cc2)cc1 | 61.1 µM | > 100 µM | > 100 µM |  | > 100 µM | 42.7 µM | 67.2 µM | 65.6 µM | 80.8 µM | > 100 µM | 36.6 µM |  |  |  |  |  |  |  |  | 
O=c1ccc2nc(-c3ccccc3)nn(-c3ccccn3)c-2c1 |  | 37.3 µM | 2.84 µM | 44.5 µM |  | 70.2 µM | 29.5 µM | 45.1 µM | 35.7 µM | > 100 µM | 30.8 µM | 16.6 µM | 1.5 µM | 20.9 µM | 25.5 µM | 9.87 µM | 13.6 µM | 8.87 µM | 13.2 µM | 16.2 µM
O=C(NC(CS)C(=O)O)c1cccc2c(=O)c3ccccc3[nH]c12 (stereo not drawn) | > 100 µM | > 100 µM |  |  | > 100 µM | > 100 µM | > 100 µM | > 100 µM | > 100 µM | > 100 µM |  |  |  |  |  |  |  |  |  | 
Cc1ccc2ccccc2c1NC1=NCCO1 | > 100 µM |  |  | > 100 µM | > 100 µM | > 100 µM | > 100 µM | > 100 µM |  | > 100 µM | > 100 µM |  |  |  |  |  |  |  |  | 
CC(C)(C)OC(=O)c1cnc(Cl)cn1 | > 100 µM |  | 16.6 µM |  | 27.5 µM | > 100 µM | > 100 µM | 55.4 µM | > 100 µM | > 100 µM | > 100 µM |  |  |  |  |  |  |  |  | 
COc1ccc(-c2c(=O)[nH]n3c(=S)nc(-c4ccccc4)[nH]c23)cc1OC | 33.9 µM | 33.1 µM | 51.6 µM | 36.1 µM | 41.6 µM | 35.8 µM | 97.8 µM | 58.3 µM | 90.7 µM | 50.4 µM |  |  |  |  |  |  |  |  |  | 
COc1cc(C2c3cc(O)c(OC)cc3C3OCC2C3CO)ccc1O (stereo not drawn) | > 100 µM | > 100 µM | > 100 µM | > 100 µM | > 100 µM | > 100 µM | > 100 µM | > 100 µM | > 100 µM |  | > 100 µM |  |  |  |  |  |  |  |  | 
C#CCOc1c(C(=O)OCC)c(=O)n(C)c2ccccc12 |  | > 100 µM | > 100 µM |  | > 100 µM |  |  | > 100 µM |  | > 100 µM | > 100 µM |  |  |  |  |  |  |  |  | 
CC(=O)Nc1ccc(NC(=O)c2c(Cl)c(Cl)c(Cl)c(Cl)c2-c2nc3ccccc3[nH]2)cc1 | > 100 µM | > 100 µM | > 100 µM | > 100 µM | > 100 µM | > 100 µM |  | > 100 µM | > 100 µM | > 100 µM | > 100 µM |  |  |  |  |  |  |  |  | 
Cn1nc2ccc3nccc(N4CCN(CCO)CC4)c3c2n1 | > 100 µM | > 100 µM |  | > 100 µM | > 100 µM | > 100 µM | > 100 µM | > 100 µM | > 100 µM | > 100 µM |  |  |  |  |  |  |  |  |  | 
O=C1CCC(=O)N1Cc1ccccc1N=[N+]([O-])c1ccccc1CN1C(=O)CCC1=O | > 100 µM |  |  | > 100 µM | > 100 µM | > 100 µM |  | > 100 µM |  | > 100 µM | > 100 µM |  |  |  |  |  |  |  |  | 
CC1(C)O[C@@H]2[C@@H](COC(=O)c3ccccc3)C[C@@H](C#N)[C@@H]2O1 | > 100 µM | > 100 µM |  | > 100 µM | > 100 µM | > 100 µM | > 100 µM | > 100 µM | > 100 µM | > 100 µM | > 100 µM |  |  |  |  |  |  |  |  | 
N#CN=C(N)NC(=O)/C=C/C=C/c1ccc(Cl)cc1 | > 100 µM | > 100 µM | > 100 µM |  | > 100 µM | > 100 µM |  | > 100 µM |  | > 100 µM | 50.4 µM |  |  |  |  |  |  |  |  | 
CC(C)=CCNc1ncnc2nc[nH]c12 | > 100 µM | > 100 µM | > 100 µM |  | > 100 µM | > 100 µM | > 100 µM | > 100 µM | > 100 µM | > 100 µM | > 100 µM |  |  |  |  |  |  |  |  | 
Cc1c(C)c2c(c(N)c1C#N)C(=O)N(Nc1ccccc1)C2=O | > 100 µM |  | > 100 µM | > 100 µM | > 100 µM | > 100 µM | > 100 µM |  | > 100 µM | > 100 µM | > 100 µM |  |  |  |  |  |  |  |  | 
CC(C)=NN/C(=N\S(=O)(=O)c1ccc(C)cc1)Nc1ccc(Cl)cc1 | > 100 µM | > 100 µM | > 100 µM |  | > 100 µM | > 100 µM | > 100 µM | > 100 µM | > 100 µM | > 100 µM |  |  |  |  |  |  |  |  |  | 
O=C(CSc1nc2ccccc2s1)c1sc2sc3ccccc3[n+]2c1[O-] | > 100 µM | > 100 µM | > 100 µM |  | > 100 µM | > 100 µM | > 100 µM | > 100 µM | > 100 µM | > 100 µM | > 100 µM |  |  |  |  |  |  |  |  | 
N#Cc1c(O)c(N=Nc2ccccc2F)c(=O)n2c1[nH]c1ccccc12 | > 100 µM | > 100 µM |  | > 100 µM | > 100 µM |  | 90.8 µM | > 100 µM | > 100 µM | > 100 µM | > 100 µM |  |  |  |  |  |  |  |  | 
